Reference: US20080176224A1, “Methods for Identifying a Patient as a Candidate for Treatment with a Long Acting Beta Agonist and for Predicting a Patient's Response to Long Acting Beta2 Agonist Therapy by Analysing Polymorphisms in the Beta2-Adrenergic Receptor Gene” (ASTRAZENECA AB, priority 2004, published 2008)
Where a name gives a salt, the structure may show the parent alone.

How the values were obtained:
[1] = test system: patients with stable COPD; test: Serial and pre-dose FEV1 (spirometry) in Viozan phase III clinical trials, stratified by ADRB2 haplotype; type: in vivo, human
Excerpt: (§1) Samples for genotyping were taken from 2450 patients recruited in four Viozan™ phase III clinical trials, namely SC-397-5097, SC-397-5098, SC-397-5099 and SC-397-5163. The patient population included male and female patients, aged 40 to 80 years, with stable COPD, symptoms for ≧2 years, and a smoking history of at least 15 pack years. […] Further details about the patient population, and the study designs, are described in Laursen et al. Respiratory Medicine (2003), Vol 97, Suppl A, S23-S33. Participation in the genetics sub-study was voluntary. Patients gave separate written informed consent for the genetic analysis. Patients all consented to provide DNA for use in studying the response to Viozan™. Viozan™ is a dual agonist, targeting the β2-adrenergic receptor and the […] genes, developed for the treatment of COPD (Rennard, 2003, Respiratory Medicine, Vol 97, Suppl A, S1-S2).
Pre- and post-dose FEV1 (forced expiratory volume in 1 second), the volume of air exhaled in the first second of the FVC manoeuvre (expressed in litres), measurements were taken at each study visit for all patients, as described in the clinical study protocols. Spirometry measurements were performed using a standard technique at each centre. Details about the spirometer used and the calibration records were provided by each centre. After resting for 15 minutes, slow vital capacity (SVC), forced vital capacity (FVC) and FEV1 were measured for at least three separate manoeuvres. The greatest values for each parameter were recorded.
Serial measurements were taken on day 1 (studies SC-397-5097 and SC-397-5098), weeks 8 and 12 (SC-397-5098) and weeks 14 and 26 (SC-397-5097). The AUC0-8, mean FEV1 at 8 hrs and mean maximum change from pre-dose (FEV1 max) were calculated. These measurements were used to investigate the bronchodilator properties of Viozan™, a long-acting β2-agonist.
Because serial FEV1 measurements were available for only a small number of subjects, and to increase the power of the analyses, the data was subsequently analysed in two subgroups (‘binning’) based on the haplotype pair of each patient; “C” haplotypes (i.e. patients having at least one copy of the ‘C’ haplotype) and “non-C” haplotype (i.e. patients having no ‘C’ haplotype). ‘C’ haplotype group included patients with haplotypes AC, BC and CC, whilst the non-C haplotype group included subjects with haplotypes AA, BB and AB. For the ‘binned’ haplotype analyses, subjects with one or more copies of haplotype D and E were not included, as there were few subjects with these haplotype pairs.
Assessment of the relationship between ADRB2 haplotype and the long-term FEV1 response, was achieved by comparing the pre-treatment and pre-dose baselines. The “pre-treatment” FEV1 baseline is for no prior exposure to the study drug, and was measured at day 1 (visit 2), immediately prior to treatment with Viozan™. The “pre-dose” FEV1 baseline is that measured prior to administration of drug on that day at subsequent visits, during the course of the trials, i.e. at weeks 8 and 12 (SC-397-5098) and weeks 14 and 26 (SC-397-5097). […] Observations are consistent with a trend for prolonged bronchodilation in the C haplotype subgroup and better overall long-term lung function in response to regular treatment with Viozan™ and long acting β2-agonists.
Analysis of the serial FEV1 response between first treatment and following 3 months of Viozan™ treatment was determined by subtracting the pre-treatment baseline (visit 2) from the absolute FEV1 measurements collected at visit 2 (day 1) and the combined data for week 12 (SC-397-5098) and week 14 (SC-397-5097). […] Serial FEV1 response at day 1 (visit 2) overlaps with that at 3 months post treatment, for patients in the ‘C’ haplotype subgroup. A similar response is observed for the non-C haplotype group at day 1 (visit 2). However, the serial FEV1 response, in the non-C haplotype group, appears to be reduced after 3 months of treatment. […]

[2] = test system: patients with stable COPD; test: BCSS (breathlessness, cough and sputum score) change from baseline in Viozan clinical trials, stratified by ADRB2 haplotype; type: in vivo, human
Excerpt: as §1
Changes in COPD symptoms were assessed using the BCSS (breathlessness, cough and sputum score), also referred to as the TSS (total symptom score). Each symptom, that is breathlessness, cough and sputum, was evaluated daily by the patient and recorded in a diary using a 5-point Likert scale (ranging from 0 to 4, with the higher values indicating more sever symptoms). The three item scores were summed to calculate the BCSS total score, resulting in a value between 0 and 12. The reliability and validity of the BCSS for evaluating symptoms in COPD is discussed in Leidy et al, 2003, Respiratory Medicine, Vol 97, SupplA, S59-S70. A mean change of ±1 point on the BCSS total score represents a substantial improvement in symptom severity for patients with moderate to severe COPD (Celli et al. Respiratory Medicine, (2003) Vol 97, SupplA, S35-43).

asthmatics = conditions: cited from earlier work
[3] = 3 mth (SC-397-5098) and 6 mth (SC-397-5097) treatment, trend
[4] = first exposure, trials SC-397-5097 and SC-397-5098

Compound	change in baseline (trough) FEV1 over the course of the trials, C-haplotype sub-group [1, 3]	change in baseline (trough) FEV1 over the course of the trials, subjects lacking C-haplotype [1, 3]	serial FEV1 response after 3 months of treatment, non-C haplotype group ([1]; change from pre-treatment baseline, combined week 12 and week 14 data, versus day 1)	time after treatment at which FEV1 response was observed [1, 4]	time for which FEV1 continued to increase post treatment [1, 4]	time of maximum FEV1 increase post study drug [1, 4]	serial FEV1 response, patients with BB haplotype pair ([1]; first exposure, BB (N=13), compared with other haplotype pairs)	serial FEV1 response, patients with BC haplotype ([1]; first exposure, BC (N=21))	difference in FEV1 between subgroups stratified by ADRB2 haplotype pair ([1]; serial FEV1 at first exposure, haplotype pairs AA, AC, BA, BB, BC)	patients with a clinically significant BCSS response compared to mean placebo response ([2]; C-haplotype group share of the clinical trial population)	BCSS response in C haplotype sub-group versus non-C haplotype group and versus placebo ([2]; change from baseline to final 4 weeks, combined SC-397-5163 and SC-397-5098)	reduction in mean BCSS, 'C' Haps (AC, BC, CC) compared to 'Non-C' Haps (AA, BB, BA) ([2]; combined studies SC-397-5163 and SC-397-5098)	BCSS response in C haplotype sub-group versus non-C haplotype subgroup ([2]; study SC-397-5163, 3 month, C Haps N=84, non-C Haps N=201)	difference in mean BCSS change from baseline to final 4 weeks of treatment, Viozan versus placebo ([2]; unstratified patient population)	lung function response, 2/2 haplotype (asthmatics; 2/2 corresponds to AA)	lung function response, 4/4 haplotype (asthmatics; 4/4 corresponds to BB)	lung function response, 4/6 haplotype (asthmatics; 4/6 corresponds to BC)
O=c1[nH]c2c(O)ccc(CCNCCS(=O)(=O)CCCOCCc3ccccc3)c2s1 [Viozan, Sibenadet HCl]	increase	decrease slightly	reduced	5 min	up to 2 hours	one to two	smaller	greatest response	approximately 100 cc	approximately 30%	significantly better	up to 0.6	significantly better	neither statistically significant, nor considered to be of clinical importance			
CC(C)(C)NCC(O)c1ccc(O)c(CO)c1 (centres unmarked) [albuterol, albuterol sulphate]															intermediate response	lowest response	best response
